Patent US6908733B2, “Diagnosis and treatment of human kidney diseases” (Shiva Biomedical, LLC, priority 1999, dated 2005)
Where “and” joins values, the source holds several entries; their conditions need not be identical. Identical values can stand only once. Entries after “also recorded” stand apart in the source; their conditions may differ.

Experiments:
[1] = tested on: patients with kidney disease; test: Serum creatinine in patients with kidney disease before and after treatment with an iron chelator; assay type: in vivo, human
Procedure: Creatinine clearance was calculated by the standard formula Cr=Ucr V/PCr where Cr=clearance of creatinine (ml/min); Ucr=urine creatinine (mg/dl), V=volume of urine, and PCr=plasma creatinine (mg/dl).
(§1) The diagnosis of the kidney disease was made by performing a kidney biopsy and included patients with membranoproliferative glomerulonephritis, membranous nephropathy, focal segmental sclerosis, IgA nephropathy, and diabetes as described above.
(§2) Patients with kidney disease who had abnormally high urinary protein were treated with the iron chelator deferiprone (1,2-dimethyl-3-hydroxypyrid-4-one) (L1). Deferiprone was synthesized as previously described capsule (Kontoghiorghes A. J., et al., Inorganica Chimica Acta 136:L11-L12 (1987), the teachings of which are hereby incorporated by reference in it entirety) and formulated into capsules containing 500 mg of deferiprone per capsule.
(§3) Urinary protein and serum creatinine was measured as described above before the administration of deferiprone. Patients were treated by oral ingestion of deferiprone in a range between about 30 mg and about 75 mg deferiprone per kilogram body weight per day 3 times a day. Urinary protein and serum creatinine was obtained 2-6 months after the administration of the iron chelator. […] Total urinary protein and serum creatinine measured before (e.g., pretreatment) and after the administration of deferiprone were compared using a paired t-test and p-value of <0.05 was considered significant.

[2] = tested on: patients with kidney disease; test: 24-hr urinary protein in patients with kidney disease before and after treatment with an iron chelator; assay type: in vivo, human
Procedure: Kidney disease was detected in patients by the presence of an abnormal amount of protein in the urine and/or an abnormal renal function. An abnormal amount of protein in urine is an amount of total protein greater than about 0.15 g/24 h measured by an adaptation of pyrogallol red-molydate method described by Fujita, Y., et al., Bunseki Kgaku 32:379-386 (1983), the teachings of which are hereby incorporated by reference in their entirety. Many patients, as part of their routine work up, had received kidney biopsies providing diagnosis of the nature of the kidney disease.
as §1, §2, §3

[3] = patients with kidney disease, paired t-test, p<0.05 significant
[4] = individual patients, before vs after 2-6 months oral deferiprone about 30-75 mg/kg per day
[5] = mean of N=14 patients, p < 0.001

Cc1c(O)c(=O)ccn1C [deferiprone, 1,2-dimethyl-3-hydroxypyrid-4-one]
effect on serum creatinine [1, 3]: significantly decreased; also recorded: decrease | Creatinine After ([1]; serum, individual patients, 2-6 months after oral deferiprone about 30-75 mg/kg per day): 0.9 mg/dl (3×) and 1.3 mg/dl and 0.6 mg/dl and 0.5 mg/dl (2×) and 1.4 mg/dl and 0.7 mg/dl and 1.5 mg/dl and 0.8 mg/dl | Creatinine After, Mean ([1]; serum, mean of N=11 patients, before 1.10): 0.90 mg/dL | 24-Hr Urinary Protein Reduction % [2, 4]: 49% and 83% and 38% and 25% and 62% and 99% and 34% and 44% and 80% and 15% and 9% and 2% and 54% and 78% | 24-Hr Urinary Protein Reduction Grams [2, 4]: 1.9 Grams and 1 Grams and 2.5 Grams and 0.7 Grams (2×) and 2.6 Grams and 5.95 Grams and 2 Grams and 2.1 Grams and 0.43 Grams and 0.5 Grams and 0.1 Grams and 1.4 Grams and 2.2 Grams | 24-Hr Urinary Protein After ([2]; individual patients, oral deferiprone about 30-75 mg/kg per day, 3 times a day, measured 2-6 months after administration): 1.5 grams/24 hrs and 0.2 grams/24 hrs and 4 grams/24 hrs and 1.6 grams/24 hrs (2×) and 0.05 grams/24 hrs and 2.8 grams/24 hrs and 2.5 grams/24 hrs and 0.1 grams/24 hrs and 3.8 grams/24 hrs and 4.8 grams/24 hrs and 4.6 grams/24 hrs and 1.2 grams/24 hrs and 0.6 grams/24 hrs | 24-Hr Urinary Protein After, Mean ([2]; mean of N=14 patients, before 3.91, 2-6 months oral deferiprone about 30-75 mg/kg per day, p < 0.001): 2.13 grams/24 hrs | 24-Hr Urinary Protein Reduction %, Mean [2, 5]: 48% | 24-Hr Urinary Protein Reduction Grams, Mean [2, 5]: 1.70 Grams | effect on total urinary protein [2, 3]: significantly decreased; also recorded: decrease
